Experimental data from ChEMBL document CHEMBL1201862, “PubChem BioAssay data set” (2004).
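Compound exposure: 48 hours, 5 concentrations, 96-well plates. Here, GI50 denotes the concentration required for 50% inhibition of growth.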 Active and inactive are the calls of the source. No stated cut-off is given here; in the data, active = GI50 up to about 1.1 µM and inactive = higher.

Columns and labels:
Assay in all cases: NCI-60 cell line screen, 48 h
[1] = tested on: CCRF-CEM
[2] = tested on: COLO 205
[3] = tested on: DMS-273
[4] = tested on: HCT-15
[5] = tested on: HOP-92
[6] = tested on: K562
[7] = tested on: KM-20L2
[8] = tested on: LXFL 529
[9] = tested on: Malme-3M
[10] = tested on: NCI-H460
[11] = tested on: SNB-78
[12] = tested on: SW-620
[13] = tested on: XF498
[14] = tested on: MOLT-4
[15] = tested on: SK-MEL-28
[16] = tested on: DU-145
[17] = tested on: MDA-MB-231
[18] = tested on: MDA-MB-435
[19] = tested on: MDA-N
[20] = tested on: PC-3

CC1=C(C(=O)CC(=O)C(=O)Nc2ccccc2C(F)(F)F)Sc2ccccc2N1
GI50 [1]: 49.7 µM (inactive)
GI50 [2]: > 100 µM (inactive)
GI50 [3]: 40.2 µM (inactive)
GI50 [4]: 48.4 µM
GI50 [5]: 20.8 µM (inactive)
GI50 [6]: 49.1 µM (inactive)
GI50 [7]: > 100 µM (inactive)
GI50 [8]: 35.7 µM (inactive)
GI50 [9]: > 100 µM (inactive)
GI50 [10]: 57.1 µM (inactive)
GI50 [11]: 47.3 µM (inactive)
GI50 [12]: 33.7 µM (inactive)
GI50 [13]: 31.5 µM (inactive)

Nc1nc(-c2ccco2)cc(-c2ccc(CO)o2)n1
GI50 [1]: 76.4 µM (inactive)
GI50 [2]: > 100 µM (inactive)
GI50 [3]: > 100 µM (inactive)
GI50 [4]: > 100 µM
GI50 [6]: > 100 µM (inactive)
GI50 [7]: > 100 µM (inactive)
GI50 [8]: > 100 µM (inactive)
GI50 [14]: > 100 µM (inactive)
GI50 [9]: > 100 µM (inactive)
GI50 [10]: > 100 µM (inactive)
GI50 [15]: > 100 µM (inactive)
GI50 [11]: > 100 µM (inactive)
GI50 [12]: > 100 µM (inactive)
GI50 [13]: > 100 µM (inactive)

CCOC(=O)C1Cc2[nH]c3ccccc3c2C(C)C1C (stereo not given)
GI50 [1]: 19.7 µM (inactive)
GI50 [2]: 17.3 µM (inactive)
GI50 [3]: 15.1 µM (inactive)
GI50 [4]: 16.7 µM
GI50 [5]: 15.7 µM (inactive)
GI50 [6]: 23.5 µM (inactive)
GI50 [7]: 16.8 µM (inactive)
GI50 [8]: 19.9 µM (inactive)
GI50 [14]: 10.8 µM (inactive)
GI50 [9]: 16.9 µM (inactive)
GI50 [10]: 17.3 µM (inactive)
GI50 [15]: 17.1 µM (inactive)
GI50 [11]: 19.4 µM (inactive)
GI50 [12]: 17.3 µM (inactive)
GI50 [13]: 16.7 µM (inactive)

CC(=O)OCCOCNC(=S)N/N=C/c1ccc(Br)s1
GI50 [1]: 3.74 µM (inactive)
GI50 [2]: > 100 µM (inactive)
GI50 [3]: > 87.7 µM (inactive)
GI50 [4]: > 100 µM
GI50 [5]: > 100 µM (inactive)
GI50 [6]: > 20.8 µM (inactive)
GI50 [7]: > 100 µM (inactive)
GI50 [8]: > 70.3 µM (inactive)
GI50 [14]: > 26.1 µM (inactive)
GI50 [9]: > 100 µM (inactive)
GI50 [10]: 78.3 µM (inactive)
GI50 [15]: > 100 µM (inactive)
GI50 [11]: > 100 µM (inactive)
GI50 [12]: > 100 µM (inactive)
GI50 [13]: > 100 µM (inactive)

O=C1C[C@@H]2[C@@H](c3ccccc3)[C@@H]3C(=O)c4ccccc4NC(=O)[C@H]3[C@]2(O)c2ccccc2N1
GI50 [1]: > 100 µM (inactive)
GI50 [2]: > 100 µM (inactive)
GI50 [3]: > 100 µM (inactive)
GI50 [4]: > 100 µM
GI50 [6]: > 100 µM (inactive)
GI50 [7]: > 100 µM (inactive)
GI50 [8]: > 100 µM (inactive)
GI50 [14]: > 100 µM (inactive)
GI50 [9]: > 100 µM (inactive)
GI50 [10]: > 100 µM (inactive)
GI50 [15]: > 100 µM (inactive)
GI50 [11]: > 100 µM (inactive)
GI50 [12]: > 100 µM (inactive)
GI50 [13]: > 100 µM (inactive)

Cc1cc(NS(=O)(=O)c2ccc(Nc3c4ccccc4nc4c(C(=O)N5CCN(CCO)CC5)cccc34)cc2)no1
GI50 [1]: 43.9 µM (inactive)
GI50 [2]: > 100 µM (inactive)
GI50 [3]: > 100 µM (inactive)
GI50 [4]: > 100 µM
GI50 [5]: > 100 µM (inactive)
GI50 [6]: 57.8 µM (inactive)
GI50 [7]: > 100 µM (inactive)
GI50 [8]: > 100 µM (inactive)
GI50 [14]: 83.2 µM (inactive)
GI50 [9]: > 100 µM (inactive)
GI50 [10]: > 100 µM (inactive)
GI50 [15]: > 100 µM (inactive)
GI50 [11]: > 100 µM (inactive)
GI50 [12]: > 100 µM (inactive)
GI50 [13]: > 100 µM (inactive)

O=C1N[C@@H]([C@H]2CC[C@H](Cl)CN2)C(=O)N[C@H]1[C@H]1CC[C@H](Cl)CN1
GI50 [1]: 0.152 µM (active)
GI50 [2]: 1.99 µM (inactive)
GI50 [3]: 0.205 µM (active)
GI50 [16]: 0.108 µM (active)
GI50 [4]: 1.14 µM
GI50 [5]: 0.757 µM (active)
GI50 [6]: 1.39 µM (inactive)
GI50 [7]: 4.93 µM (inactive)
GI50 [17]: 0.925 µM (active)
GI50 [18]: 1.06 µM (active)
GI50 [19]: 0.555 µM (active)
GI50 [14]: 0.103 µM (active)
GI50 [9]: 0.836 µM (active)
GI50 [10]: 0.116 µM (active)
GI50 [20]: 0.804 µM (active)
GI50 [15]: 4.32 µM (inactive)
GI50 [11]: 2.94 µM (inactive)
GI50 [12]: 0.962 µM (active)
GI50 [13]: 0.184 µM (active)

CCOC(OC(C)=O)[C@@H]1C=C[C@H](C)N(c2ccc([N+](=O)[O-])cc2)O1 (stereo not given in full)
GI50 [1]: 2.29 µM (inactive)
GI50 [2]: 11.9 µM (inactive)
GI50 [3]: 3.19 µM (inactive)
GI50 [4]: 2.4 µM
GI50 [5]: 6.25 µM (inactive)
GI50 [6]: 2.73 µM (inactive)
GI50 [7]: 8.55 µM (inactive)
GI50 [8]: 3.65 µM (inactive)
GI50 [14]: 1.86 µM (inactive)
GI50 [9]: 7.98 µM (inactive)
GI50 [10]: 10.6 µM (inactive)
GI50 [15]: 3.01 µM (inactive)
GI50 [11]: 7.48 µM (inactive)
GI50 [12]: 2.46 µM (inactive)
GI50 [13]: 14.6 µM (inactive)

CC(=O)NC(CCCNCc1ccccc1)C(=O)NCc1ccccc1 (stereo not given)
GI50 [1]: > 100 µM (inactive)
GI50 [2]: > 100 µM (inactive)
GI50 [3]: > 100 µM (inactive)
GI50 [4]: > 100 µM
GI50 [5]: > 100 µM (inactive)
GI50 [6]: > 100 µM (inactive)
GI50 [7]: > 100 µM (inactive)
GI50 [8]: > 100 µM (inactive)
GI50 [14]: > 100 µM (inactive)
GI50 [9]: > 100 µM (inactive)
GI50 [10]: > 100 µM (inactive)
GI50 [15]: > 100 µM (inactive)
GI50 [11]: 82 µM (inactive)
GI50 [12]: > 100 µM (inactive)
GI50 [13]: > 100 µM (inactive)

O=C(C=C1SCCS1)/C=C\c1ccc(Cl)cc1
GI50 [1]: 51.3 µM (inactive)
GI50 [2]: > 100 µM (inactive)
GI50 [3]: 99.3 µM (inactive)
GI50 [5]: > 100 µM (inactive)
GI50 [6]: 49.5 µM (inactive)
GI50 [8]: 69.7 µM (inactive)
GI50 [14]: > 100 µM (inactive)
GI50 [9]: > 100 µM (inactive)
GI50 [15]: > 100 µM (inactive)
GI50 [11]: > 100 µM (inactive)
GI50 [12]: > 100 µM (inactive)
GI50 [13]: 73.8 µM (inactive)

CS(=O)(=O)c1nc(N)nc2nc[nH]c12
GI50 [1]: > 100 µM (inactive)
GI50 [2]: > 100 µM (inactive)
GI50 [3]: > 100 µM (inactive)
GI50 [4]: > 100 µM
GI50 [5]: > 100 µM (inactive)
GI50 [6]: > 100 µM (inactive)
GI50 [7]: > 100 µM (inactive)
GI50 [8]: > 100 µM (inactive)
GI50 [14]: > 100 µM (inactive)
GI50 [10]: > 100 µM (inactive)
GI50 [15]: > 100 µM (inactive)
GI50 [11]: > 100 µM (inactive)
GI50 [12]: > 100 µM (inactive)
GI50 [13]: > 100 µM (inactive)

CC(=O)CC(=O)Nc1ccccc1[N+](=O)[O-]
GI50 [1]: > 100 µM (inactive)
GI50 [2]: > 100 µM (inactive)
GI50 [3]: > 100 µM (inactive)
GI50 [4]: > 100 µM
GI50 [5]: > 100 µM (inactive)
GI50 [6]: > 100 µM (inactive)
GI50 [7]: > 100 µM (inactive)
GI50 [8]: > 100 µM (inactive)
GI50 [14]: > 100 µM (inactive)
GI50 [9]: > 100 µM (inactive)
GI50 [10]: > 100 µM (inactive)
GI50 [15]: > 100 µM (inactive)
GI50 [11]: > 100 µM (inactive)
GI50 [12]: > 100 µM (inactive)
GI50 [13]: > 100 µM (inactive)

Cn1c(=O)c2ccc(-c3ccc(Br)cc3)nc2n(C)c1=O
GI50 [1]: > 100 µM (inactive)
GI50 [2]: > 100 µM (inactive)
GI50 [3]: > 100 µM (inactive)
GI50 [4]: > 100 µM
GI50 [5]: > 100 µM (inactive)
GI50 [6]: > 100 µM (inactive)
GI50 [8]: > 100 µM (inactive)
GI50 [14]: > 100 µM (inactive)
GI50 [9]: > 100 µM (inactive)
GI50 [10]: > 100 µM (inactive)
GI50 [15]: > 100 µM (inactive)
GI50 [11]: 85.3 µM (inactive)
GI50 [12]: > 100 µM (inactive)
GI50 [13]: > 100 µM (inactive)

Cc1nc2c(o1)/C(=N\c1ccccc1)c1nc(C)oc1/C2=N/c1ccccc1
GI50 [1]: 61.1 µM (inactive)
GI50 [2]: 33.1 µM (inactive)
GI50 [3]: 20 µM (inactive)
GI50 [4]: 23.4 µM
GI50 [5]: 24 µM (inactive)
GI50 [6]: 33 µM (inactive)
GI50 [7]: 25.5 µM (inactive)
GI50 [8]: 20.8 µM (inactive)
GI50 [14]: 27.5 µM (inactive)
GI50 [9]: 19.4 µM (inactive)
GI50 [10]: 29.3 µM (inactive)
GI50 [15]: 23.9 µM (inactive)
GI50 [11]: > 100 µM (inactive)
GI50 [12]: 34.4 µM (inactive)
GI50 [13]: 18 µM (inactive)
